Source: patent US4988687A, “Cephalosporin derivatives, and antibacterial agents” (priority 1986, dated 1991)
Converted amounts (≈) assume the structure as drawn. Where two headings read alike, the source gives them in different places.

Experiments:
E. coli GN5482 = assay: agar plate dilution method, MIC against E. coli GN5482; format: cell-based; settings: Escherichia coli; E. coli GN5482 (lactamase-producing strain); 10^6 CFU/ml, 37° C., 16 hours; read-out: Minimum Inhibitory Concentration (MIC)
Protocol: (§1) The in vitro antibacterial activities of the compounds of the present invention against various microorganisms, were measured by the following agar plate dilution method. One platinum loopfull of each test microorganism incubated overnight in Mueller Hinton broth, was inoculated to Mueller Hinton agar (inoculum size: 10^6 CFU/ml) Such culture media containing various antibiotics in various concentrations were prepared After incubation at 37° C. for 16 hours, the minimum inhibitory concentrations (MIC: μg/ml) were measured. As comparative compounds, cefotaxime, oeftazidime and the compounds disclosed in Example 2 of Japanese Unexamined Patent Publication No. 215690/1985 e.g. sodium 7-[2-(2-aminothiazol-4-yl)-2-ethoxyiminoacetamido]-3-(1-carboxylatemethylpyridinio-4-yl)thiomethyl-3-cephem-4-carboxylate (hereinafter referred to simply as "Reference Example A") were employed.

E. coli NIHJ JC2 = assay: agar plate dilution method, MIC against E. coli NIHJ JC2; format: cell-based; settings: Escherichia coli, NIHJJC2; E. coli NIHJ JC2; 10^6 CFU/ml, 37° C., 16 hours; read-out: Minimum Inhibitory Concentration (MIC)
Protocol: as §1

Ps. maltophilia GN 12873 = assay: agar plate dilution method, MIC against Ps. maltophilia GN 12873; format: cell-based, Pseudomonas maltophilia; settings: Stenotrophomonas maltophilia, GN12873; Ps. maltophilia GN 12873 (lactamase-producing strain); 10^6 CFU/ml, 37° C., 16 hours; read-out: Minimum Inhibitory Concentration (MIC)
Protocol: as §1

S. aureus BB5703 = assay: agar plate dilution method, MIC against S. aureus BB5703; format: cell-based; settings: Staphylococcus aureus, BB5703, 16 h, read-out: Minimum Inhibitory Concentration (MIC)
Protocol: as §1

K. pneumoniae No. 42 = assay: agar plate dilution method, MIC against K. pneumoniae No. 42; format: cell-based; settings: Klebsiella pneumoniae, read-out: Minimum Inhibitory Concentration (MIC)
Protocol: as §1

[1] = system: sensitive and resistant Gram-positive bacteria and Gram-negative bacteria particularly glucose non-fermentative Gram-negative rods; assay: antibacterial activity and spectrum (in words); format: cell-based; settings: in vitro
Protocol: as §1

P. vulgaris HX-19 = assay: agar plate dilution method, MIC against P. vulgaris HX-19; format: cell-based; settings: Proteus vulgaris, read-out: Minimum Inhibitory Concentration (MIC)
Protocol: as §1

K. pneumoniae PCI-602 = assay: agar plate dilution method, MIC against K. pneumoniae PCI-602; format: cell-based; settings: Klebsiella pneumoniae, PCI602, 16 h, read-out: Minimum Inhibitory Concentration (MIC)
Protocol: as §1

C. freundii GN346 = assay: agar plate dilution method, MIC against C. freundii GN346; format: cell-based; settings: Citrobacter freundii; C. freundii GN346 (lactamase-producing strain); 10^6 CFU/ml, 37° C., 16 hours; read-out: Minimum Inhibitory Concentration (MIC)
Protocol: as §1

C. freundii GN346/16 = assay: agar plate dilution method, MIC against C. freundii GN346/16; format: cell-based; settings: Citrobacter freundii; C. freundii GN346/16; 10^6 CFU/ml, 37° C., 16 hours; read-out: Minimum Inhibitory Concentration (MIC)
Protocol: as §1

S. epidermidis IAM12012 = assay: agar plate dilution method, MIC against S. epidermidis IAM12012; format: cell-based; settings: Staphylococcus epidermidis, IAM12012, 16 h, read-out: Minimum Inhibitory Concentration (MIC)
Protocol: as §1

P. vulgaris No. 33 = assay: agar plate dilution method, MIC against P. vulgaris No. 33; format: cell-based; settings: Proteus vulgaris; P. vulgaris No. 33 (lactamase-producing strain); 10^6 CFU/ml, 37° C., 16 hours; read-out: Minimum Inhibitory Concentration (MIC)
Protocol: as §1

E. coli CSH(RE45) = assay: agar plate dilution method, MIC against E. coli CSH(RE45); format: cell-based; settings: Escherichia coli, 16 h, read-out: Minimum Inhibitory Concentration (MIC)
Protocol: as §1

A. calcoaceticus No. 4 = assay: agar plate dilution method, MIC against A. calcoaceticus No. 4; format: cell-based; settings: Acinetobacter calcoaceticus; A. calcoaceticus No. 4; 10^6 CFU/ml, 37° C., 16 hours; read-out: Minimum Inhibitory Concentration (MIC)
Protocol: as §1

Ps. aeruginosa IFO3445 = assay: agar plate dilution method, MIC against Ps. aeruginosa IFO3445; format: cell-based; settings: Pseudomonas aeruginosa; Ps. aeruginosa IFO3445; 10^6 CFU/ml, 37° C., 16 hours; read-out: Minimum Inhibitory Concentration (MIC)
Protocol: as §1

E. cloacae 963 = assay: agar plate dilution method, MIC against E. cloacae 963; format: cell-based; settings: Enterobacter cloacae; E. cloacae 963; 10^6 CFU/ml, 37° C., 16 hours; read-out: Minimum Inhibitory Concentration (MIC)
Protocol: as §1

S. marcescens No. 16-2 = assay: agar plate dilution method, MIC against S. marcescens No. 16-2; format: cell-based; settings: Serratia marcescens, read-out: Minimum Inhibitory Concentration (MIC)
Protocol: as §1

E. coli CSH2 (RK1) = assay: agar plate dilution method, MIC against E. coli CSH2 (RK1); format: cell-based; settings: Escherichia coli, 16 h, read-out: Minimum Inhibitory Concentration (MIC)
Protocol: as §1

K. oxytoca GN10650 = assay: agar plate dilution method, MIC against K. oxytoca GN10650; format: cell-based; settings: Klebsiella oxytoca, read-out: Minimum Inhibitory Concentration (MIC)
Protocol: as §1

M. morganii GN5407 = assay: agar plate dilution method, MIC against M. morganii GN5407; format: cell-based; settings: Morganella morganii; M. morganii GN5407 (lactamase-producing strain); 10^6 CFU/ml, 37° C., 16 hours; read-out: Minimum Inhibitory Concentration (MIC)
Protocol: as §1

S. aureus 209P NIHJ-JC1 = assay: agar plate dilution method, MIC against S. aureus 209P NIHJ-JC1; format: cell-based; settings: Staphylococcus aureus, read-out: Minimum Inhibitory Concentration (MIC)
Protocol: as §1

Ps. aeruginosa AKR17 = assay: agar plate dilution method, MIC against Ps. aeruginosa AKR17; format: cell-based; settings: Pseudomonas aeruginosa, AKR17, 16 h, read-out: Minimum Inhibitory Concentration (MIC)
Protocol: as §1

M. luteus ATCC9341 = assay: agar plate dilution method, MIC against M. luteus ATCC9341; format: cell-based; settings: Micrococcus luteus, read-out: Minimum Inhibitory Concentration (MIC)
Protocol: as §1

S. marcescens IAM 1184 = assay: agar plate dilution method, MIC against S. marcescens IAM 1184; format: cell-based; settings: Serratia marcescens, IAM1184; S. marcescens IAM 1184; 10^6 CFU/ml, 37° C., 16 hours; read-out: Minimum Inhibitory Concentration (MIC)
Protocol: as §1

Ps. aeruginosa AK 109 = assay: agar plate dilution method, MIC against Ps. aeruginosa AK 109; format: cell-based; settings: Pseudomonas aeruginosa, AK109; Ps. aeruginosa AK 109; 10^6 CFU/ml, 37° C., 16 hours; read-out: Minimum Inhibitory Concentration (MIC)
Protocol: as §1

S. aureus JS1 = assay: agar plate dilution method, MIC against S. aureus JS1; format: cell-based; settings: Staphylococcus aureus, read-out: Minimum Inhibitory Concentration (MIC)
Protocol: as §1

Ps. cepacia 23 = assay: agar plate dilution method, MIC against Ps. cepacia 23; format: cell-based, Pseudomonas cepacia; settings: Burkholderia cepacia, 23, 16 h, read-out: Minimum Inhibitory Concentration (MIC)
Protocol: as §1

E. cloacae Nek 39 = assay: agar plate dilution method, MIC against E. cloacae Nek 39; format: cell-based; settings: Enterobacter cloacae, NEK39; E. cloacae Nek 39 (lactamase-producing strain); 10^6 CFU/ml, 37° C., 16 hours; read-out: Minimum Inhibitory Concentration (MIC)
Protocol: as §1

Structure (SMILES)	MIC (E. coli GN5482) [µg/mL]	MIC (E. coli NIHJ JC2) [µg/mL]	MIC (Ps. maltophilia GN 12873) [µg/mL]	MIC (S. aureus BB5703) [µg/mL]	antibacterial activities and antibacterial spectrum (in words) [1]	MIC (K. pneumoniae PCI-602) [µg/mL]	MIC (C. freundii GN346) [µg/mL]	MIC (C. freundii GN346/16) [µg/mL]	MIC (S. epidermidis IAM12012) [µg/mL]	MIC (P. vulgaris No. 33) [µg/mL]	MIC (E. coli CSH(RE45)) [µg/mL]	MIC (A. calcoaceticus No. 4) [µg/mL]	MIC (Ps. aeruginosa IFO3445) [µg/mL]	MIC (E. cloacae 963) [µg/mL]	MIC (E. coli CSH2 (RK1)) [µg/mL]	MIC (M. morganii GN5407) [µg/mL]	MIC (Ps. aeruginosa AKR17) [µg/mL]	MIC (S. marcescens IAM 1184) [µg/mL]	MIC (Ps. aeruginosa AK 109) [µg/mL]	MIC (Ps. cepacia 23) [µg/mL]	other results
Nc1nc(C(=NOC(C(=O)O)c2ccc(O)c(O)c2)C(=O)NC2C(=O)N3C(C(=O)[O-])=C(CSc4cc[n+](CC(=O)O)cc4)CSC23)cs1 (stereo not drawn) [Example 5, 7-[2-(2-aminothiazol-4-yl)-2-(α-carboxy-3,4-dihydroxybenzyloxyimino)acetamido]-3-(1-carboxymethylpyridinio-4-yl)thiomethyl-3-cephem-4-carboxylate (syn-isomer)]	0.2 (≈ 0.279 µM)	0.1 (≈ 0.14 µM)	> 100	3.12 (≈ 4.35 µM)	excellent antibacterial activities and a broad antibacterial spectrum	< 0.006	25 (≈ 34.9 µM)	0.39 (≈ 0.544 µM)	1.56 (≈ 2.18 µM)	0.05 (≈ 0.0698 µM)	0.05 (≈ 0.0698 µM)	0.2 (≈ 0.279 µM)	0.39 (≈ 0.544 µM)	0.1 (≈ 0.14 µM)	0.05 (≈ 0.0698 µM)	0.1 (≈ 0.14 µM)	1.56 (≈ 2.18 µM)	0.1 (≈ 0.14 µM)	0.78 (≈ 1.09 µM)	< 0.006	MIC (K. pneumoniae No. 42; K. pneumoniae No. 42 (lactamase-producing strain), 10^6 CFU/ml, 37° C., 16 hours): 0.2 µg/mL (≈ 0.279 µM); MIC (P. vulgaris HX-19; HX19, 16 h): 0.025 µg/mL (≈ 0.0349 µM); MIC (S. marcescens No. 16-2; NO.162, S. marcescens No. 16-2 (lactamase-producing strain), 10^6 CFU/ml, 37° C., 16 hours): 0.78 µg/mL (≈ 1.09 µM); MIC (K. oxytoca GN10650; K. oxytoca GN10650 (lactamase-producing strain), 10^6 CFU/ml, 37° C., 16 hours): 0.05 µg/mL (≈ 0.0698 µM); MIC (S. aureus 209P NIHJ-JC1; S. aureus 209P NIHJ-JC1, 10^6 CFU/ml, Mueller Hinton agar, 37° C., 16 hours): 0.78 µg/mL (≈ 1.09 µM); MIC (M. luteus ATCC9341; M. luteus ATCC9341, 10^6 CFU/ml, 37° C., 16 hours): 0.78 µg/mL (≈ 1.09 µM); MIC (S. aureus JS1; JS1, 16 h): 6.25 µg/mL (≈ 8.72 µM); MIC (E. cloacae Nek 39): 0.2 µg/mL (≈ 0.279 µM)
CC(=O)Oc1ccc(C(O/N=C(\C(=O)NC2C(=O)N3C(C(=O)[O-])=C(CSc4cc[n+](CC(=O)O)cc4)CSC23)c2csc(N)n2)C(=O)O)cc1OC(C)=O (stereo not drawn) [Example 6, disodium 7-[2-(2-aminothiazol-4-yl)-2-(α-carboxylate-3,4-diacetoxybenzyloxyimino)acetamido]-3-(1-carboxylatemethylpyridinio-4-yl)thiomethyl-3-cephem-4-carboxylate (syn-isomer)]	0.39	0.2	> 100	6.25	excellent antibacterial activities and a broad antibacterial spectrum	< 0.006	25	0.39	3.12	0.1	0.05	0.39	0.78	0.39	0.05	0.2	1.56	0.2	0.78	0.025	MIC (K. pneumoniae No. 42; NO.42, 16 h): 0.1 µg/mL; MIC (P. vulgaris HX-19; HX19, P. vulgaris HX-19, 10^6 CFU/ml, 37° C., 16 hours): 0.1 µg/mL; MIC (S. marcescens No. 16-2; NO.162, 16 h): 1.56 µg/mL; MIC (K. oxytoca GN10650; GN10650, 16 h): 0.2 µg/mL; MIC (S. aureus 209P NIHJ-JC1; 16 h): 1.56 µg/mL; MIC (M. luteus ATCC9341; ATCC9341, 16 h): 3.12 µg/mL; MIC (S. aureus JS1; S. aureus JS1 (methicilline resistant; lactamase-producing strain), 10^6 CFU/ml, 37° C., 16 hours): 25 µg/mL; MIC (E. cloacae Nek 39): 0.78 µg/mL
